These results are taken from PMC7277748 (Biomedicines, 2020).

Series [1] has as its target T1, AChE-induced Aβ1–42 aggregation (Electrophorus electricus, UniProt O42275).
T1 construct: purchased
Description: Inhibition of AChE-induced Aβ1–42 aggregation (thioflavin T assay). Format: biochemical. The following applies: for inhibitory effect on AChE-induced Aβ1–42 aggregation (in words): ThT-based fluorescence assay. How it is done: Inhibition of AChE-induced Aβ1–42 aggregation was modified and measured using a thioflavin T (ThT) binding assay, as described elsewhere. Briefly, Aβ1–42 was dissolved in 50 mM phosphate buffer (pH 8.0). […] The fluorescence intensities were recorded, and the percentage of inhibition on aggregation was calculated by using the following equation: (1 – IFi/IFc) * 100%, in which IFi and IFc were the fluorescence of the AChE-induced Aβ1–42 aggregation group in the presence and absence of the test compounds, respectively, after subtracting the fluorescence of self Aβ1–42 aggregation and the background fluorescence of 5 μM ThT in the blank buffers. […] All determinations were carried out at least three times and in triplicate wells. […]

In a further series the target is Aβ1–42 (Homo sapiens, UniProt P05067). Description: Inhibition of self-induced Aβ1–42 aggregation (thioflavin T assay). Format: biochemical. The following applies: ThT fluorescence, Aβ1–42, 48 h at 37 °C, mean ± SD; read-out: Self-Induced Aβ IC50. How it is done: Inhibition of self-induced Aβ1–42 aggregation was assayed, as described elsewhere. […] After incubation, the samples were mixed with […] glycine/NaOH buffer (pH 8.5) containing 5 μM ThT. […] The fluorescence intensities were recorded, and the percentage of inhibition on aggregation was calculated by using the following equation: (1 − IFi/IFc) * 100% in which IFi and IFc were the fluorescence intensities obtained for Aβ1-42 aggregation group in the presence and absence of the test compounds, respectively, after subtracting the background fluorescence of 5 μM ThT in the blank buffers. […] The experiment was done in independent triplicates. […]

For series [2], the target named is T2, AChE from Electrophorus electricus (type VI-S) (Electrophorus electricus, UniProt O42275).
T2 construct: purchased
The series is described as follows: biochemical. How it is done: Acetylcholinesterase inhibitory activity was determined and modified from Ellman, as described elsewhere. […] The enzyme activity and the percentage inhibition were determined. […] All determinations were carried out at least three times and in triplicate wells.

For series [3], the system named is SH-SY5Y cells. The series is described as follows: Cytotoxicity in SH-SY5Y cells (MTT). Format: cell-based. The settings on record: 0.1 to 10 µM for 24 h. How it is done:
(§1) Human neuroblastoma cells (SH-SY5Y) were cultured in Dulbecco’s Modified Eagle Medium (DMEM/Ha’s F12) containing 50 IU/mL penicillin, […] streptomycin, 2 mM L-glutamine, and 10% fetal bovine serum. Cells were maintained at 37 °C in a humidified incubator in an atmosphere of 5% CO2 For the assay, the SH-SY5Y cells, at a density of 5 × 10^5 cell/mL, were seeded in a 96-well plate and incubated for 48 h.
For cytotoxicity evaluation, the cells were treated with potential coumarin derivatives in various concentrations for 24 h. After that, cell viability was determined by staining the cells with 3-(4, 5-dimethyl-2-thiazolyl)-2, 5-diphenyl-2H-tetrazolium bromide, and MTT (5 mg/mL in PBS) for 2 h. The optical density of each well was measured at 550 nm in a […] Accureader M965 microplate reader.

Series [4] deals with SH-SY5Y cells. The series is described as follows: Neuroprotection against H2O2-induced cell damage (MTT). Format: cell-based, Human. The settings on record: pre-incubation with 10 µM for 24 h, then 100 µM H2O2 for 2 h, compared to H2O2 treated group. The protocol: as §1
For neuroprotection against H2O2 investigation, the cells were pretreated with coumarin in various concentrations for 24 h. After removing unabsorbed test compounds by washing with phosphate buffer saline, the cells were treated with 100 µM H2O2 for 2 h to induce oxidative stress. Cell viability was determined by the MTT colorimetric method. The optical density of each well was measured at 550 nm. […] All data were expressed as a percentage of non-H2O2-treated groups (control group). The cell viability of the control group was expressed as 100%. The experiment was done in independent triplicates (4 wells/group).
The neuroprotective effect of phellopterin against oxidative stress was determined by colorimetric MTT assay in SH-SY5Y cells. Hydrogen peroxide at concentration 100 µM was used to induce oxidative damage. SH-SY5Y cells were pretreated with phellopterin at a concentration of 0.1 to 10 µM for 24 h prior to exposure to H2O2 for 2 h.

Series [5] concerns SH-SY5Y cells. Description: Neuroprotection against Aβ1–42 toxicity (MTT). The series is classed as cell-based, Human. The settings on record: 0.1 to 10 µM with 25 µM Aβ1–42 for 24 h, compared to Aβ1–42-induced group. The protocol:
as §1
For neuroprotection against Aβ1–42 toxicity, the Aβ1–42 preparation was modified from. Briefly, lyophilized Aβ1–42 was reconstituted in sterile water and keep at −80 °C until further use. […] Cell viability was determined by the MTT colorimetric method. The optical density of each well was measured at 550 nm in a […] Accureader M965 microplate reader. […] All data were expressed as a percentage of non-Aβ1–42-treated groups (control group). Cell viability of the control group was expressed as 100%. […]
Aβ has been implicated in the pathogenesis of AD. […] Therefore, the neuroprotective effect against Aβ1–42 toxicity of phellopterin was also determined in SH-SY5Y cells. Aβ1–42 at concentration 25 µM was treated with cells in the presence or absence of phellopterin at a concentration 0.1 to 10 µM for 24 h, and then the cell viability was determined by MTT assay. […]

[6] abbreviates: Ellman method, 0.2 Units/mL AChE, pH 7.4, mean ± SD, read-out: AChE assay IC50.

SMILES strings stand for the structures. Like-named read-outs stand apart in the source and are kept apart here.

T2 sequence (O42275 24-633): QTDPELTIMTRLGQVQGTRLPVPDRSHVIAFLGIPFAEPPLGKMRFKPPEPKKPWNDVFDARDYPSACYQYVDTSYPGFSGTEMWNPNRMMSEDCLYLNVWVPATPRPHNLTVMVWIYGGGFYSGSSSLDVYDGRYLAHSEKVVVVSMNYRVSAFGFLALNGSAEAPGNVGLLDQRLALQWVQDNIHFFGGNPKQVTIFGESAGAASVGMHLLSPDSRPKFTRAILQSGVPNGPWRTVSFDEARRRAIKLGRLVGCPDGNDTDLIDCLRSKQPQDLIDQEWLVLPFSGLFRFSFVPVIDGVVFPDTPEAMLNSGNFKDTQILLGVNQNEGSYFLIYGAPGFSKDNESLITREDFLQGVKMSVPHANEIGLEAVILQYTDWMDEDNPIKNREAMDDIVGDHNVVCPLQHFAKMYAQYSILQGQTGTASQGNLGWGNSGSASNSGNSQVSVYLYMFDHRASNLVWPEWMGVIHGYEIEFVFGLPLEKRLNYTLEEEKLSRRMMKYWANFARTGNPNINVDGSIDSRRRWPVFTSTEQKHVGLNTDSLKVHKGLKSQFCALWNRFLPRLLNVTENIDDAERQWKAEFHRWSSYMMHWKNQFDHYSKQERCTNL
T1 sequence (O42275 24-633): as above
Sequence of Aβ1–42 (P05067 672-713 limits assumed): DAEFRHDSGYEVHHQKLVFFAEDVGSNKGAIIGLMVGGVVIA

For `COc1cc2oc(=O)ccc2c(OC)c1O` [Fraxinol, fraxinol], the half-maximal inhibitory concentration (IC50) in series [1] was above 500 µM; on Aβ1–42, 209 ± 21 µM; in series [2] (setting [6]), 18 ± 7 µM. The “inhibitory effect on AChE-induced Aβ1–42 aggregation (in words)” value in series [1] is “did not have inhibitory effects”.
For `COc1c2ccoc2c(OCC=C(C)C)c2oc(=O)ccc12` [Phellopterin, phellopterin], the 50% inhibitory concentration (IC50) in series [1] stood at 97 ± 7 µM; on Aβ1–42, 95 ± 3 µM; in series [2] (setting [6]), 38 ± 3 µM. The “viability of SH-SY5Y cells (cytotoxicity)” value in the series with SH-SY5Y cells [3] is “no significant change”. In the series with SH-SY5Y cells [4], the “effect on H2O2-induced cell damage (cell viability)” value is reported as “significantly attenuated the H2O2-induced cell damage”. Also, the “effect on Aβ1–42-induced cell damage (cell viability)” value with SH-SY5Y cells [5] is reported as “significantly increase cell viability”.
For the compound `COc1cc2oc(=O)ccc2c(OC)c1C[C@@H](O)C(C)(C)O` [Toddalolactone, toddalolactone], the IC50 in series [1] was found to be 105 ± 9 µM; at Aβ1–42, 220 ± 1 µM; in series [2] (setting [6]), 49 ± 5 µM.
The corresponding values for `COc1cc(OC)c2ccc(=O)oc2c1OCC=C(C)C` [Artanin, artanin] are 98 ± 19 µM, 124 ± 10 µM and 51 ± 2 µM.
The corresponding values for `COC1=CC(=O)c2cc(C)cc(-c3c(OC)cc(OC)c4ccc(=O)oc34)c2C1=O` [Toddacoumaquinone, toddacoumaquinone] are 72 ± 5 µM, 145 ± 2 µM and 46 ± 12 µM.
For `COc1cc2oc(=O)ccc2c(OC)c1CC(=O)C(C)C` [Toddanone, toddanone], the figures for the IC50 (in series [1]; at Aβ1–42; in series [2] (setting [6])) were 110 ± 2 µM, 76 ± 1 µM and 46 ± 3 µM, respectively.
With `COc1cc2oc(=O)ccc2c(OC)c1CC=C(C)C` [Toddaculin, toddaculin], the IC50 in series [1] was found to be 232 ± 10 µM; on Aβ1–42, 143 ± 4 µM; in series [2] (setting [6]), 53 ± 9 µM.
For `COc1c2ccoc2c(OC)c2oc(=O)ccc12` [Isopimpinellin, isopimpinellin], the IC50 in series [1] was above 500 µM; on Aβ1–42 it was 125 ± 13 µM; in series [2] it was 41 ± 1 µM. Besides, the “inhibitory effect on AChE-induced Aβ1–42 aggregation (in words)” value in series [1] is “did not have inhibitory effects”.
Consider `COc1cc(OC)c2ccc(=O)oc2c1/C=C/C(C)=O` [Toddalenone, toddalenone], for which the IC50 in series [1] was determined as 211 ± 29 µM; at Aβ1–42, 99 ± 1 µM; in series [2] (setting [6]), 40 ± 4 µM.

A word on the IC50: it is the concentration that gives 50% inhibition.
